According to the Deep4Chem optical property database:
Blank lines part the entries; values can stand above or below the compound they belong to.

Test: solvent given as SMILES

- fluorescence lifetime (in O): 3.9 ns
SMILES: CCNc1ccc2c(c1)C(C)(C)C(=O)C=C2

- fluorescence lifetime (in ClCCl): 3.7 ns
SMILES: CC(C)(C)c1ccc2c(c1)c1cc(C(C)(C)C)ccc1n2-c1ccc(C#Cc2ccc(C#Cc3ccc(C=C(C#N)C#N)cc3)cc2)cc1

- fluorescence lifetime (in C1CCOC1): 18.1 ns
SMILES: CCC1(CC)c2cc(B(c3c(C)cc(C)cc3C)c3c(C)cc(C)cc3C)ccc2-c2c1c1c(c3c2C(CC)(CC)c2cc(N(c4ccccc4)c4ccccc4)ccc2-3)C(CC)(CC)c2cc(B(c3c(C)cc(C)cc3C)c3c(C)cc(C)cc3C)ccc2-1

- fluorescence lifetime (in ClCCl): 9 ns
SMILES: O=c1c2cccc3cccc(c32)c2nc3c(F)c(F)c(F)c(F)c3n12

SMILES: Fc1c(F)c(-n2c3ccccc3c3ccccc32)c(F)c(F)c1-c1nnc(-c2ccccc2)o1
- fluorescence lifetime (in Cc1ccccc1): 6.7 ns

SMILES: c1ccc(-c2nn(-c3ccccc3)c3nc4ccc(-n5c6ccccc6c6ccccc65)cc4cc23)cc1
- fluorescence lifetime (in C1CCCCC1): 17.6 ns
- fluorescence lifetime (in C1CCOC1): 19.1 ns
- fluorescence lifetime (in CC#N): 21.8 ns
- fluorescence lifetime (in CC(C)=O): 21.6 ns
- fluorescence lifetime (in CCCCCl): 19.1 ns
- fluorescence lifetime (in CCCCOCCCC): 19.4 ns
- fluorescence lifetime (in CN(C)C=O): 20.2 ns

- fluorescence lifetime (in ClCCl): 1 ns
SMILES: COCCOCCOCCOCC(COCCOCCOCCOC)Oc1cc(/C=C/c2ccc(/C=C(\C#N)C(=O)c3ccccc3)cc2)c(OC(COCCOCCOCCOC)COCCOCCOCCOC)cc1/C=C/c1ccc(/C=C(\C#N)C(=O)c2ccccc2)cc1

SMILES: COc1ccc(N(c2ccccc2)c2ccccc2)cc1
- fluorescence lifetime (in Cc1ccccc1): 1.89 ns

- fluorescence lifetime (in C1CCOC1): 4.7 ns
SMILES: c1ccc(-c2cnc3nn4ccccc4c3c2)cc1

- fluorescence lifetime (in C1CCOC1): 5.3 ns
SMILES: c1ccc(-c2cnc3nn4ccccc4c3n2)cc1

- fluorescence lifetime (in C1CCOC1): 3.1 ns
- fluorescence lifetime (in CC(C)O): 3.5 ns
- fluorescence lifetime (in CO): 2.9 ns
- fluorescence lifetime (in CS(C)=O): 3.7 ns
- fluorescence lifetime (in ClC(Cl)Cl): 1.2 ns
- fluorescence lifetime (in ClCCl): 1.4 ns
SMILES: Cc1ccc(-n2c(-c3ccccc3O)nc(-c3ccccc3O)c2-c2ccccc2O)cc1

SMILES: Cc1cc(C)c(B(c2ccccc2N2c3ccccc3Oc3ccccc32)c2c(C)cc(C)cc2C)c(C)c1
- fluorescence lifetime (in Cc1ccccc1): 62 ns

- fluorescence lifetime (in ClCCl): 1.4 ns
SMILES: COc1ccc(-c2ccc3c(c2)[Si](C)(C)c2cc(-c4ccc(OC)cc4)ccc2C=C3)cc1

SMILES: COc1ccc(C2=C3C=c4c(oc5cc6c(cc45)[C@H]4CC[C@]5(C)C(=O)CC[C@H]5[C@@H]4CC6)=[N+]3[B-](F)(F)n3c2cc2c4cc5c(cc4oc23)CC[C@@H]2[C@@H]5CC[C@]3(C)C(=O)CC[C@@H]23)cc1
- fluorescence lifetime (in CCOC(C)=O): 3.94 ns
- fluorescence lifetime (in CCOCC): 4.04 ns
- fluorescence lifetime (in CO): 3.71 ns

- fluorescence lifetime (in CCOC(C)=O): 2.64 ns
SMILES: OCc1cc2c(cc3ccc4cccc5ccc2c3c45)[nH]1

SMILES: CNc1cccc2c1C(=O)c1ccccc1C2=O
- fluorescence lifetime (in C1CCC2CCCCC2C1): 0.446 ns
- fluorescence lifetime (in C1CCCCC1): 0.443 ns
- fluorescence lifetime (in CC1CCCCC1): 0.445 ns
- fluorescence lifetime (in CC#N): 0.204 ns
- fluorescence lifetime (in CCC(C)CC): 0.444 ns
- fluorescence lifetime (in CCCCCC): 0.451 ns
- fluorescence lifetime (in CCOC(C)=O): 0.253 ns

SMILES: CCCCCCCCC1(CCCCCCCC)c2ccccc2-c2ccc(-c3nnc(-c4ccc(-n5c6ccc(C(C)(C)C)cc6c6cc(C(C)(C)C)ccc65)cc4)o3)cc21
- fluorescence lifetime (in Cc1ccccc1): 1.7 ns

- fluorescence lifetime (in C1CCOC1): 3.05 ns
SMILES: COc1cc2c(cc1-c1ccc(Cl)cc1)Cc1c3c(c4c(c1-2)-c1cc(OC)c(-c2ccc(Cl)cc2)cc1C4)C(=O)N(CCC(C)C)C3=O

SMILES: COc1ccc(/C=C/C2=[O+][B-](F)(F)OC(/C=C/c3ccc(OC)cc3)=C2c2ccccc2)cc1
- fluorescence lifetime (in CC#N): 1.5 ns
- fluorescence lifetime (in CC(C)=O): 1.43 ns
- fluorescence lifetime (in CCOC(C)=O): 1.18 ns
- fluorescence lifetime (in CCOCC): 0.9 ns
- fluorescence lifetime (in ClC(Cl)(Cl)Cl): 0.7 ns
- fluorescence lifetime (in ClCCl): 1.35 ns

- fluorescence lifetime (in ClCCl): 0.97 ns
SMILES: Oc1ccc2ccccc2c1-c1nc2c(c3c1-c1ccccc1CC3)-c1ccccc1CC2

- fluorescence lifetime (in CCC(C)C): 0.52 ns
- fluorescence lifetime (in ClCCl): 0.44 ns
SMILES: c1csc(-c2ccc(-c3ccc(-c4cccs4)s3)s2)c1

- fluorescence lifetime (in C1CCCCC1): 2.93 ns
- fluorescence lifetime (in C1CCOC1): 4.54 ns
- fluorescence lifetime (in C1COCCO1): 3.97 ns
- fluorescence lifetime (in CC#N): 4.04 ns
- fluorescence lifetime (in CCOC(C)=O): 4.65 ns
- fluorescence lifetime (in CN(C)C=O): 6.28 ns
- fluorescence lifetime (in CO): 5.08 ns
- fluorescence lifetime (in ClC(Cl)Cl): 3.86 ns
SMILES: O=C(O)c1ccccc1Nc1cccc(C(F)(F)F)c1
